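Five compound concentrations were applied to cells in 96-well plates for 48 hours; endpoints were derived by simple linear interpolation of the resulting dose-response curve. GI50 = concentration required for 50% inhibition of growth.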 Active and inactive are the calls of the source. Rule as the data show it: active = GI50 up to about 1.1 µM and inactive = higher.

Test systems include UACC-62; HCT-15; SN12C; HOP-92; A549; MOLT-4; SK-MEL-2; SF-268; OVCAR-5; PC-3; UO-31; HOP-62; MDA-MB-435; SK-MEL-28; DU-145; NCI/ADR-RES; NCI-H460; NCI-H522; SK-OV-3.
Assay in all cases: NCI tumour cell line growth inhibition, 48 h

On to `CC(C)C1(NC(=O)C2CC3c4cccc5[nH]cc(c45)CC3N(C)C2)OC2(O)C3CCCN3C(=O)C(Cc3ccccc3)N2C1=O` (stereo not given), for which the GI50 was 65.8 µM (inactive) in the test on UACC-62; 23.6 µM in the test on HCT-15; > 100 µM (inactive) with SN12C; 18.6 µM (inactive) in the test with HOP-92; 7.21 µM (inactive) with A549; 3.81 µM (inactive) in the test on MOLT-4. Moreover, the GI50 with SK-MEL-2 was 29.2 µM (inactive); with SF-268 it was > 100 µM (inactive); in the test on OVCAR-5, > 100 µM (inactive); with PC-3, 5.62 µM (inactive); in the test on UO-31 it was 12.9 µM (inactive); with HOP-62 it was > 100 µM (inactive). Besides, the GI50 with MDA-MB-435 is 19.4 µM (inactive); with SK-MEL-28, 24.9 µM (inactive); in the test with DU-145, 51.2 µM (inactive); in the test with NCI/ADR-RES, 35.4 µM (inactive); with NCI-H460, 19.2 µM (inactive); in the test on NCI-H522 it was 38.9 µM (inactive).
Regarding `O=C(/C=C/c1cccs1)c1cccc(C(=O)/C=C/c2cccs2)n1`, the GI50 in the test on UACC-62 is > 31.2 µM (inactive); with SK-OV-3 it was > 100 µM (inactive); in the test on HCT-15, 24 µM; in the test with SN12C it was 19.9 µM (inactive); in the test on HOP-92, > 100 µM (inactive); in the test on A549, > 84.3 µM (inactive). The GI50 is 2.29 µM (inactive) in the test on MOLT-4; > 100 µM (inactive) in the test with SK-MEL-2; 21.5 µM (inactive) with SF-268; > 73.1 µM (inactive) with OVCAR-5; 36.3 µM (inactive) in the test with PC-3; 21.3 µM (inactive) with UO-31. Moreover, the GI50 in the test with HOP-62 was 25.4 µM (inactive); in the test on MDA-MB-435, 52.7 µM (inactive); in the test on SK-MEL-28, 53.2 µM (inactive); in the test on DU-145, > 81.3 µM (inactive); in the test with NCI/ADR-RES it was > 60 µM (inactive); in the test on NCI-H460 it was > 100 µM (inactive). Also, the GI50 with NCI-H522 is 22.1 µM (inactive).
As to `COc1ccc(-c2oc3cc(OC)c(OC)c(O)c3c(=O)c2OC)cc1`, the GI50 is 21.4 µM (inactive) in the test on UACC-62; 22.7 µM (inactive) in the test with SK-OV-3; 40.5 µM in the test on HCT-15; 80.4 µM (inactive) in the test with SN12C; 14.5 µM (inactive) in the test with HOP-92; > 100 µM (inactive) with A549. Also, the GI50 was > 100 µM (inactive) in the test on MOLT-4; 30.6 µM (inactive) in the test with SK-MEL-2; 24.5 µM (inactive) with SF-268; > 100 µM (inactive) with OVCAR-5; 39.8 µM (inactive) with PC-3; > 100 µM (inactive) in the test on UO-31. Moreover, the GI50 is 30.3 µM (inactive) in the test on HOP-62; > 100 µM (inactive) in the test on MDA-MB-435; > 100 µM (inactive) with SK-MEL-28; 58.7 µM (inactive) in the test with DU-145; 80.5 µM (inactive) in the test with NCI/ADR-RES; > 100 µM (inactive) in the test on NCI-H460. Further, the GI50 in the test with NCI-H522 was 33.7 µM (inactive).
`NCCCNCCCCN1CC1`: the GI50 in the test on UACC-62 was 3.99 µM (inactive); with SK-OV-3, 2.25 µM (inactive); in the test with HCT-15 it was 8.41 µM; in the test on SN12C, 3.77 µM (inactive); in the test on HOP-92 it was 0.745 µM (active); in the test on A549, 9.57 µM (inactive). Also, the GI50 was 1.26 µM (inactive) in the test on MOLT-4; 1.69 µM (inactive) with SK-MEL-2; 1.99 µM (inactive) in the test on SF-268; 12 µM (inactive) in the test on OVCAR-5; 5.69 µM (inactive) with PC-3; 7.18 µM (inactive) in the test on UO-31. For the same molecule, the GI50 in the test on HOP-62 was 2.72 µM (inactive); in the test with MDA-MB-435, 3.6 µM (inactive); in the test on SK-MEL-28, 7.76 µM (inactive); with DU-145 it was 2.12 µM (inactive); with NCI/ADR-RES it was 3.33 µM (inactive); with NCI-H460 it was 16.7 µM (inactive). Besides, the GI50 with NCI-H522 is 2.81 µM (inactive).

The values are drawn from ChEMBL document CHEMBL1201862, “PubChem BioAssay data set” (2004).
